Results published in ChEMBL document CHEMBL1909046, “DrugMatrix in vitro pharmacology data”.

Columns and labels:
Neutrophil elastase = biological target: T1, Neutrophil elastase (Homo sapiens, UniProt P08246); format: tissue-based;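 note: inhibition of neutrophil elastase enzyme activity, measured with a p-nitroanilide-linked peptide substrate; in other assays of this panel Not Active means under 50% inhibition at 10 µM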
T1 sequence (P08246 whole entry): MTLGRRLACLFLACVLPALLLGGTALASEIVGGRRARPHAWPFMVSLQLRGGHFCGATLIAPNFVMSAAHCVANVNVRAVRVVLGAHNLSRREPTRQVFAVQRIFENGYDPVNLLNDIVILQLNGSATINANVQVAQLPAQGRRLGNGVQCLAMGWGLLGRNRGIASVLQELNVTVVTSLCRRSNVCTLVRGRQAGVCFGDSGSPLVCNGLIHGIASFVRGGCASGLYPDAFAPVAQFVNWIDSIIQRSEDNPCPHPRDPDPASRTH

Adenosine receptor A1 = biological target: T2, Adenosine receptor A1 (Homo sapiens, UniProt P30542); format: cell membranes, CHO, Membrane;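 note: radioligand binding assay at the adenosine A1 receptor, with DPCPX serving as the labelled ligand; in other assays of this panel Not Active means under 50% inhibition at 10 µM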
T2 sequence (P30542 whole entry): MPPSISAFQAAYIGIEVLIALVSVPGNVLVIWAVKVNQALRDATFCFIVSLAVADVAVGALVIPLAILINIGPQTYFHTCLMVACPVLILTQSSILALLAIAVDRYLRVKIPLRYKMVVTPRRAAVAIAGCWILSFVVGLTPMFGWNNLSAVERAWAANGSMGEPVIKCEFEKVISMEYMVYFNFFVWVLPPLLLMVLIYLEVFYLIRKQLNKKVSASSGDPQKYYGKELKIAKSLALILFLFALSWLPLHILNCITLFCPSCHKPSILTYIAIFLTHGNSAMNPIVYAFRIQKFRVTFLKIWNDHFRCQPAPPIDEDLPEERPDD

Mu-type opioid receptor = Mu-type opioid receptor (Homo sapiens, UniProt P35372); assay: DRUGMATRIX: Opiate mu (OP3, MOP) radioligand binding (ligand: [3H] Diprenorphine); format: cell membranes, CHO-K1, Membrane; settings: cho-k1; Not Active = under 50% inhibition at 10 µM
Chain of Mu-type opioid receptor (P35372 whole entry): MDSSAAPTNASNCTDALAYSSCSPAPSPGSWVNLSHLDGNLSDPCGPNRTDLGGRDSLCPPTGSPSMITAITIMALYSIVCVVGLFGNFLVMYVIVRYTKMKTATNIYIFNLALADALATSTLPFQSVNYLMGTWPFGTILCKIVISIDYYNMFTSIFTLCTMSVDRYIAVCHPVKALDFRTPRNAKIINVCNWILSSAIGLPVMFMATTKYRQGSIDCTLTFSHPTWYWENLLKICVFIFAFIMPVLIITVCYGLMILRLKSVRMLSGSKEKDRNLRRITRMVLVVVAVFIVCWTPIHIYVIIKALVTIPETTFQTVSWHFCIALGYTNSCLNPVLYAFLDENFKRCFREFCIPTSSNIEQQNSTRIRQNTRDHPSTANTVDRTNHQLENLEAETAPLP

[1] = DRUGMATRIX: Sodium/nucleoside co-transporter radioligand binding (ligand: nitrobenzylthioinosine); format: cell membranes, Cavia porcellus, Dunkin-Hartley, Cerebral cortex, Membrane; settings: Not Active = under 50% inhibition at 10 µM
[2] = DRUGMATRIX: Atrial Natriuretic Factor (ANF) radioligand binding (ligand: [125I] ANF (rat)); format: cell membranes, Cavia porcellus, Dunkin-Hartley, Adrenal gland, Membrane; settings: Not Active = under 50% inhibition at 10 µM

| Compound | IC50 (Neutrophil elastase) | IC50 (Adenosine receptor A1; cho) | IC50 (Mu-type opioid receptor) | IC50 [1] | Ki [1] | IC50 [2] | Ki [2] | IC50 (Adenosine receptor A1; read-out: IC50) [µM] | Ki (Adenosine receptor A1; read-out: Ki) [µM] | Ki (Neutrophil elastase) | Ki (Adenosine receptor A1; cho) |
| --- | --- | --- | --- | --- | --- | --- | --- | --- | --- | --- | --- |
| NC[C@H]1O[C@H](O[C@H]2[C@H](O)[C@@H](O[C@H]3O[C@H](CO)[C@@H](O)[C@H](N)[C@H]3O)[C@H](N)C[C@@H]2N)[C@H](N)C[C@@H]1O [TOBRAMYCIN] | Not Active | Not Active | Not Active | Not Active | Not Active | Not Active | Not Active |  |  |  |  |
| O=P(O)(O)C(O)(Cc1cccnc1)P(=O)(O)O [RISEDRONIC ACID] | Not Active | Not Active | Not Active | Not Active | Not Active | Not Active | Not Active |  |  |  |  |
| Nc1ccc(S(=O)(=O)Nc2nccs2)cc1 [SULFATHIAZOLE] | Not Active | Not Active | Not Active | Not Active | Not Active | Not Active | Not Active |  |  |  |  |
| Nc1ccc(S(=O)(=O)Nc2ncccn2)cc1 [SULFADIAZINE] | Not Active | Not Active | Not Active | Not Active | Not Active | Not Active | Not Active |  |  |  |  |
| CN[C@@H]1[C@H](O)[C@H](NC)[C@H]2O[C@@]3(O)C(=O)C[C@@H](C)O[C@H]3O[C@@H]2[C@H]1O [SPECTINOMYCIN] | Not Active | Not Active | Not Active | Not Active | Not Active | Not Active | Not Active |  |  |  |  |
| COc1cc(N)nc2[nH]c(-c3ccc(F)cc3)c(-c3ccncc3)c12 | Not Active |  | Not Active | Not Active | Not Active | Not Active | Not Active | 0.887 | 0.518 |  |  |
| CN(CCOc1ccc(CC2SC(=O)NC2=O)cc1)c1ccccn1 (centres undefined) [ROSIGLITAZONE] | Not Active | Not Active | Not Active | Not Active | Not Active | Not Active | Not Active |  |  |  |  |
| C=C(C)[C@H]1Cc2c(ccc3c2O[C@@H]2COc4cc(OC)c(OC)cc4[C@@H]2C3=O)O1 [ROTENONE] | Not Active | Not Active |  | Not Active | Not Active | Not Active | Not Active |  |  |  |  |
| O=c1n(CCCN2CCN(c3cccc(Cl)c3)CC2)nc2ccccn12 [TRAZODONE] | Not Active | Not Active | Not Active |  |  |  |  |  |  |  |  |
| O=C(O)C(Cl)(Cl)Cl [TRICHLOROACETIC ACID] | Not Active | Not Active |  | Not Active | Not Active | Not Active | Not Active |  |  |  |  |
| CNS(=O)(=O)Cc1ccc2[nH]cc(CCN(C)C)c2c1 | Not Active | Not Active | Not Active | Not Active | Not Active | Not Active | Not Active |  |  |  |  |
| CCCc1nn(C)c2c(=O)[nH]c(-c3cc(S(=O)(=O)N4CCN(C)CC4)ccc3OCC)nc12 | Not Active |  | Not Active | Not Active | Not Active | Not Active | Not Active | 1.49 | 0.871 |  |  |
| Nc1nc2c(c(=O)[nH]1)N(C=O)C(CNc1ccc(C(=O)N[C@@H](CCC(=O)O)C(=O)O)cc1)CN2 (some centres undefined) [LEUCOVORIN] | Not Active | Not Active | Not Active | Not Active | Not Active | Not Active | Not Active |  |  |  |  |
| CCS(=O)(=O)CCn1c([N+](=O)[O-])cnc1C [TINIDAZOLE] | Not Active | Not Active | Not Active | Not Active | Not Active | Not Active | Not Active |  |  |  |  |
| C#CCN(C)[C@H](C)Cc1ccccc1 [SELEGILINE] | Not Active | Not Active | Not Active | Not Active | Not Active | Not Active | Not Active |  |  |  |  |
| COc1cc(C(=O)NS(=O)(=O)c2ccccc2C)ccc1Cc1cn(C)c2ccc(NC(=O)OC3CCCC3)cc12 [ZAFIRLUKAST] | Not Active | Not Active | Not Active | Not Active | Not Active | Not Active | Not Active |  |  |  |  |
| STANNOUS FLUORIDE | Not Active | Not Active |  | Not Active | Not Active | Not Active | Not Active |  |  | Not Active | Not Active |
| CN1C2CCCC1CC(NC(=O)c1nn(C)c3ccccc13)C2 (centres undefined) [GRANISETRON] | Not Active | Not Active | Not Active |  |  |  |  |  |  |  |  |
